Reference: patent publication US20140357706A1, “Stearate Compounds” (THE UAB RESEARCH FOUNDATION, priority 2011, published 2014)

What was measured:
[1] = test system: visceral adipocytes from ApoE knockout mice; experiment: Expression of cIAP2, Bcl-2 and Bax in visceral adipocyte cultures; type: cell-based; details: 50 μM fatty acid; vs no additional fatty acid
Protocol: It was hypothesized that stearate induces apoptosis in visceral adipocytes by at least one of the following mechanisms: inhibition of cIAP2, activation of Bcl-2, and activation of BAX. […] Six cultures were exposed to each fatty acid or no fatty acid. The expression of cIAP2, Bcl-2, and Bax was measured in each culture. […] By decreasing levels of the cIAP2 and/or Bcl-2 polypeptides and increasing expression of the Bax polypeptide, stearate administration may lead to an increase in cellular apoptotic activity (such as but not limited to the visceral fat tissues). Without wishing to be bound by any given hypothetical model, it is proposed that this reduction in cIAP2 expression and this increase in Bax expression (independently or in combination) is responsible for the relative decrease in visceral fat tissue that is observed when animals are given a diet that is high in stearate.

[2] = test system: p21^CIP1/WAF1, p27^KIP1, pCdk2; experiment: Immunoblot of p21CIP1/WAF1, p27KIP1 and phosphorylated Cdk2 in Hs578T cells; type: cell-based, human; details: 50 μM stearate, Hs578T
Protocol: (§1) The concentration of stearate used to treat the Hs578T cells was 50 μM. When EGF was used, the concentration was 1 nM EGF. Before the treatment with stearate or EGF, cells were first starved for 24-48 hours. Stearate was loaded onto fatty acid-free bovine serum albumin (BSA) according to the method reported by Spector et al. (13); briefly, stearate (0.5 g) was dissolved in chloroform (100 ml) and mixed well with 10 g diatomaceous earth in a 1 liter flask. The mixture was stirred and dried under nitrogen until powder. BSA is a physiological carrier of fatty acids and was used to avoid the introduction of organic solvents to solutions coming into contact with cells. Fatty acid-free BSA (1 g) was dissolved in 100 ml with Dulbecco's modified Eagle's medium without phenol red and mixed with 3 g of the stearate/diatomaceous earth mixture with stirring for 45 min. The stearate/BSA solution was filtered through a 0.45 μm filter, and adjusted to pH 7.4. The concentration of stearate in the solution was detected with the NEFA C Kit from Wako Chemicals GmbH (Neuss, Germany). All experimental data on Hs578T cells were controlled using fatty acid-free BSA control solutions that were put through the same preparatory procedure described for the stearate/BSA solution except for the fact that no fatty acid was added.
Cells were treated as described above, and lysed with lysis buffer. The supernatants of the lysates or the immunoprecipitates were loaded with Laemmli sample buffer on 10% sodium dodecyl sulfate-polyacrylamide gel electrophoresis gels after boiling at 100° C. for 5 min. Proteins were then transferred to a polyvinylidene difluoride membrane. The membranes were blocked overnight at 4° C. with blocking buffer containing 5% non-fat dried milk powder in Tris-buffered saline-T (25 mM Tris, 140 mM NaCl, 2.7 mM KCl, 0.05% Tween-20, pH 8.0), incubated with primary antibody in blocking buffer at room temperature for 1 hour and incubated with antirabbit or antimouse antibodies labeled with horseradish peroxidase (1:5000) in blocking buffer under the same conditions, and then washed three times for 10 min in Tris-buffered saline-T. The polyvinylidene difluoride membranes were washed and developed using enhanced chemiluminescence reagents.

3T3L1 cells = experiment: 3T3L1 cell differentiation (oil red O staining); type: cell-based, mouse; details: 50 μM during differentiation
Protocol: 3T3L1 mouse fibroblast cells (ATCC, CL-173™) were maintained according to the manufacture's protocol, in Dulbecco's modified eagle's medium (DMEM) containing 10% Fetal Bovine Serum and antibiotics (M1 medium). Adipocyte differentiation was performed according to standard procedures (42). Briefly, the 3T3L1 fibroblasts were seeded at 30% confluence and allowed to grow to near 100% confluence. On the day after reaching maximum confluence, conversion was induced by replacing the M1 medium with M1 medium containing insulin (5 μg/ml), dexamethasone (0.25 μM), and 3-isobutyl-1-methyl-xanthine (0.5 mM). After 2 days, the cells were changed to M1 medium with insulin (5 μg/ml) for an additional 2 days. […]
50 μM of stearate, oleate or linoleate was used to treat 3T3L1 cells as this concentration is centered within the normal range for non-esterified stearate in the plasma of humans. […] The concentration of stearate in the solution was detected by use of a NEFA C kit. […]
Cellular lipids were stained with oil red O. Briefly, identical numbers of 3T3L1 cells were placed in 6-well plates, cultured and converted to adipocytes as described above. […] 200 cells were counted under the microscope in each sample, and the percentage of converted adipocytes was calculated. […] The oil red O was then eluted with 1 ml 100% isopropanol, and the OD was measured at 520 nm in a spectrophotometer.

ERK = experiment: Immunoblot of phosphorylated ERK in Hs578T cells; type: cell-based, human; details: between 8 and 16 h post-stearate, sustained up to 24 h
Protocol: as §1
Cells were treated as described above, and lysed with lysis buffer. […]

Ras = Ras activation assay in Hs578T cells; type: cell-based, human; details: with or without EGF
Protocol: as §1, with “All experimental data on Hs578T cells were controlled using fatty acid-free BSA control solutions that were put through the same preparatory procedure described for the stearate/BSA solution except for the fact that no fatty acid was added.” left out
(§2) Ras and Rho activation assay kits were purchased from Millipore (Billerica, Mass.). […] The beads were washed three times with lysis buffer B. Bound Ras-GTP and Rho-GTP proteins were detected by immunoblot using Ras and Rho antibodies.

Rho = Rho activation assay in Hs578T cells; type: cell-based, human; details: all time points, especially 16 and 24 h post-EGF stimulation; vs controls
Protocol: as §1, with “All experimental data on Hs578T cells were controlled using fatty acid-free BSA control solutions that were put through the same preparatory procedure described for the stearate/BSA solution except for the fact that no fatty acid was added.” left out
as §2

`CCCCCCCCCCCCCCCCCC(=O)O` [stearate, Stearic acid] was tested, and the “Expression of Bax” value [1] was “increases”, the “Expression of cIAP2” value [1] was “reduces” and the “Protein level of p21^CIP1/WAF1” value [2] was “increases”. For the same molecule, the “Protein level of p27^KIP1” value [2] was “increases”, the pCdk2 [2] was “decreased” and the “Oil red O eluted, OD value” (3T3L1 cells) was “no difference”. For the same molecule, the “Percentage of differentiated adipocytes” value (3T3L1 cells; vs control) was “no significant difference”, the “Phosphorylation of ERK” value (ERK) was “increased” and the “Binding of GTP to Ras” value (Ras) was “increases”. For the same molecule, the Rho-GTP (Rho) was “decreased”.
